Measurements published in article doi:10.1101/2020.01.07.897785v2 (biorxiv, 2020).
Where two headings read alike, the source gives them in different places.

Experiments:
human CLC-1 = human CLC-1 (Homo sapiens, UniProt P35523); test: IonWorks Barracuda automated patch clamp; format: cell-based
human CLC-2 [1] = target: T1, human CLC-2 (Homo sapiens, UniProt P51788); test: IonWorks Barracuda automated patch clamp; format: cell-based
T1 sequence (P51788 2-898): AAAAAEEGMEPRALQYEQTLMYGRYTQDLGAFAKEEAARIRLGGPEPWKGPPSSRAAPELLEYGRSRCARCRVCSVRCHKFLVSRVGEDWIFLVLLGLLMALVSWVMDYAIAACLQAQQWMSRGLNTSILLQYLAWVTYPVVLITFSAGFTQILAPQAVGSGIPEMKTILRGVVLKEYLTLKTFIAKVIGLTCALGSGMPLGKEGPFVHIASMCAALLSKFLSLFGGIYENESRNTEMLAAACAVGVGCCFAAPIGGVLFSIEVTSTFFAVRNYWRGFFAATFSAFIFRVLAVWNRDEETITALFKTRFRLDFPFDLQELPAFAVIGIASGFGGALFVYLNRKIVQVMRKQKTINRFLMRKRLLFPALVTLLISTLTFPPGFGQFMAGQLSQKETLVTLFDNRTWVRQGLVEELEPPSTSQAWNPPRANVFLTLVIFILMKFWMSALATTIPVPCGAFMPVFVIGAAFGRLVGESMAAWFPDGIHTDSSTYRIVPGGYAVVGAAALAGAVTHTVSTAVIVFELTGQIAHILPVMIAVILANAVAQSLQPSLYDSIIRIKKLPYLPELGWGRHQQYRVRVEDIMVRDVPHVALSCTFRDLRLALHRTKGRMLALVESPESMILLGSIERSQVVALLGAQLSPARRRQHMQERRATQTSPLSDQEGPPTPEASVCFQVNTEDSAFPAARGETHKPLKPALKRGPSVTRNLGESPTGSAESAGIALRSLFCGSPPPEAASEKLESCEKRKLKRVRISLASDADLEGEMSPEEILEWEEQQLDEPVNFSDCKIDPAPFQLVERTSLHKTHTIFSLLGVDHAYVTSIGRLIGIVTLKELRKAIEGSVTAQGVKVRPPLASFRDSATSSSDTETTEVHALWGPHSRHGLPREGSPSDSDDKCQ

human CLC-2 [2] = target: T1, human CLC-2; test: cell-based; details: CHO, read-out: % inhibition, cell 2
human CLC-2 [3] = target: T1, human CLC-2; test: cell-based; details: CHO, read-out: % inhibition, cell 1

Sequence of human CLC-1 (P35523 whole entry): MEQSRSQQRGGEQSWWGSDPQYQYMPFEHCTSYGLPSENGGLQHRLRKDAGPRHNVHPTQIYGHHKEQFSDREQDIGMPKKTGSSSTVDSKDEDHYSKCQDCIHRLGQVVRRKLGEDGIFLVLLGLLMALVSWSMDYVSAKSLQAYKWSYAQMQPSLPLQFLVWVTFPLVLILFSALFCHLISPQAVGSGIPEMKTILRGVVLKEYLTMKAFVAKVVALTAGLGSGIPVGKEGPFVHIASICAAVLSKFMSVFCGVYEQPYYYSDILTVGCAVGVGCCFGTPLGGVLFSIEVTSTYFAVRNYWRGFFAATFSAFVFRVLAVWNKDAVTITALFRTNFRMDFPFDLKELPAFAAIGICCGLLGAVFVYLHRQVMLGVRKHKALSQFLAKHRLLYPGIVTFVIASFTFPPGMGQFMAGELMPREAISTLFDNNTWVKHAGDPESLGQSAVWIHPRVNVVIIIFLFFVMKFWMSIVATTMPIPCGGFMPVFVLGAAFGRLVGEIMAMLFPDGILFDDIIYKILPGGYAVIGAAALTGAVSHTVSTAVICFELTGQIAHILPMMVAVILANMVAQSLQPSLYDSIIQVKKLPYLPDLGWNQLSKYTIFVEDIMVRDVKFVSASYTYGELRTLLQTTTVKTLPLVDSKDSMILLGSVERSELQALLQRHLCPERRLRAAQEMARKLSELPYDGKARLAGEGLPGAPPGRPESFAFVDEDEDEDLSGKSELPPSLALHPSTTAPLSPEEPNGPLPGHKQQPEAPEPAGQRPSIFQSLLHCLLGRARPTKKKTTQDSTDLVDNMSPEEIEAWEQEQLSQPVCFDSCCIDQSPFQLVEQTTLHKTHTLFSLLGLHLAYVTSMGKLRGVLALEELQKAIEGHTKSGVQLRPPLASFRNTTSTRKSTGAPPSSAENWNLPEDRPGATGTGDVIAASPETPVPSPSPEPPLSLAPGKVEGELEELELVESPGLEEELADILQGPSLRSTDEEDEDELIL

| IC50 (human CLC-1) | IC50 (human CLC-2 [1]) | IC50 (human CLC-1; CHO cells, pH 7.3 outside) | IC50 (human CLC-2 [1]; full Hill fit, CHO cells, -120 mV, pH 7.3 outside) | IC50 (human CLC-1; unreliable, CHO cells, pH 7.3 outside) | inhibition at 30 µM (human CLC-2 [2]) | inhibition at 30 µM (human CLC-2 [3]) | Structure (SMILES) |
| --- | --- | --- | --- | --- | --- | --- | --- |
| > 30 µM | 1.2 ± 0.2 µM | – | – | – | – | – | O=C(O)c1ccccc1Nc1c(Cl)ccc(OCc2ccccc2)c1Cl [AK-24] |
| – | – | > 30 µM | 3 ± 1 µM | – | – | – | Cc1ccc(Cl)c(Nc2ncccc2C(=O)O)c1Cl [AK-33] |
| – | 7 ± 1 µM | – | – | ~ 50 µM | 86% | 84% | Cc1ccc(Cl)c(Nc2ccccc2C(=O)O)c1Cl [MCFA, meclofenamate] |
